{"source": "patent US8461183B2", "about": "“PPAR agonist compounds, preparation and uses” (Genfit, priority 2008, dated 2013)", "key": {"[1]": {"test_system": "ApoE2/E2 dyslipidemic mouse", "test": "Plasma lipids in the ApoE2/E2 dyslipidemic mouse", "format": "in vivo", "details": "7 days", "description": "The hypolipemic properties of the compounds according to the invention were evaluated in vivo by determination of plasma lipids and by analysis of gene expression of targets genes of PPARs in the liver after oral treatment of a dyslipidemic mouse with the compounds according to the invention.\nThe murine model used is the mouse of type ApoE2/E2, a mouse transgenic for the E2 isoform of human apolipoprotein E (Sullivan P M et al., 1998). In humans, this apolipoprotein, a constituent of low and very low density lipoproteins (LDL-VLDL), occurs in three isoforms E2, E3 and E4. […] Because of this, clearance of VLDLs is almost zero. This leads to accumulation of […] and mixed, so-called type III hyperlipidemia (raised cholesterol and triglycerides).\nPPARα regulates the expression of genes involved in lipid transport (apolipoproteins such as Apo AI, Apo AII and Apo CIII, membrane transporters such as FAT) or the catabolism of lipids (ACO, CPT-I or CPT-II, enzymes of β-oxidation of fatty acids). Treatment with PPARα activators is therefore reflected, both in humans and in rodents, in a decrease in levels of circulating triglycerides. Measurement of plasma lipids after treatment with the compounds according to the invention is therefore an indicator of the PPARα agonist character and therefore of the hypolipemic action of the compounds according to the invention.\n(§1) Apo E2/E2 transgenic mice were kept in a cycle of light and darkness of 12 hours/12 hours at a constant temperature of 20±3° C. After acclimation for one week, the mice were weighed and put into groups of 6 animals selected in such a way that the distribution of their bodyweight and of their plasma lipid values determined first before the experiment are uniform. The compounds tested were suspended in carboxymethylcellulose (Sigma C4888) and administered at the chosen dose by stomach tube, at a rate of once a day for 7 days at the chosen dose. The animals had free access to water and food. At the end of the experiment, the animals were anesthetized after fasting for 4 hours, a blood sample was taken on anticoagulant (EDTA), then the mice were weighed and euthanased. The plasma was separated by centrifugation at 3000 rev/min for 20 minutes, and the samples were stored at +4° C. for the biochemical assays. Samples of liver were taken and frozen immediately in liquid nitrogen and then stored at −80° C. for subsequent analyses.\nThe plasma concentrations of lipids (total cholesterol, HDL-cholesterol, and free fatty acids) were measured by enzyme assays (bioMérieux-Lyons-France) according to the supplier's recommendations."}, "[2]": {"test_system": "PPARα target genes (ACO, PDK-4, Apo CIII) in liver", "test": "Hepatic expression of PPARα target genes (quantitative RT-PCR) in the ApoE2/E2 mouse", "format": "in vivo", "details": "10 and 100 mpk, 7 days, normalized to 36B4", "source_text": "The PPARα agonist properties previously measured in vitro should be translated at the hepatic level by a change in the level of expression of the target genes directly under the control of the PPARα receptor: the genes that were studied in these experiments are those coding for ACO (a key enzyme in the mechanism of β-oxidation of fatty acids), PDK-4 (an enzyme of carbohydrate metabolism) and Apo CIII (apolipoprotein involved in lipid metabolism). This change in gene expression after treatment with the compounds according to the invention is therefore also an indicator of their hypolipemic character.\nas §1\nTotal RNA was extracted from fragments of liver using the NucleoSpin® 96 RNA kit (Macherey Nagel, Hoerdt, France) according to the manufacturer's instructions. 1 μg of total RNA (quantified using the Ribogreen RNA quantification kit (Molecular Probes)) was then reverse transcribed to complementary DNA by a reaction of 1 hour at 37° C. in a total volume of 20 μl containing buffer 1× (Sigma), 1.5 mM of DTT, 0.18 mM of dNTPs (Promega), 200 ng of pdN6 (Amersham), 30U of RNase inhibitor (Sigma) and 1 μl of MMLV-RT (Sigma).\nThe quantitative PCR experiments were performed using the MyiQ Single-Color Real-Time PCR Detection System (Biorad, Marnes-la-Coquette, France) and were carried out using the iQ SYBR Green Supermix kit according to the supplier's recommendations, in 96-well plates, on 5 μl of diluted reverse transcription reaction mixtures, with a hybridization temperature of 55° C. Specific primer pairs of the genes under investigation were used:\nThe amount of fluorescence emitted is directly proportional to the amount of complementary DNA present at the start of the reaction and amplified during PCR. For each target investigated, a range is prepared by successive dilutions of a pool consisting of a few μl of different reverse transcription reactions. The relative levels of expression of each target are thus determined using the curves of efficacy obtained with the scale points.\nThe levels of expression of the genes of interest were then normalized relative to the level of expression of the 36B4 reference gene (whose specific primers are: […]\nThe induction factor, i.e. the ratio of the relative signal (induced by the compound according to the invention) to the mean of the relative values of the control group, was then calculated for each sample. The higher this factor, the more the compound has a character of activation of gene expression. The final result is represented as the mean of the induction values in each experimental group."}, "[3]": {"test_system": "3T3-L1 murine pre-adipocytes", "test": "PPARγ functional effect: adipogenesis in 3T3-L1 pre-adipocytes (triglycerides, adiponectin)", "format": "cell-based, Mus musculus", "details": "3T3-L1, 9 days of treatment, 30 nM to 30 μM", "description": "The functional effect of activation of PPARγ is evaluated in vitro on a line of pre-adipocyte cells 3T3-L1 (Thompson G M et al., 2004) by measuring the concentration of intracellular triglycerides and the concentration of adiponectin secreted in the culture medium after 9 days of treatment with the compounds according to the invention.\nAt confluence, the cells were then rinsed with PBS (Phosphate Buffered Saline solution) and the culture medium was replaced with DMEM 4.5 g/L glucose (10% FCS, 1% L-glutamine, 100 units/mL penicillin and 100 μg/mL streptomycin, 0.25 mM) containing a cocktail for initiation of adipocyte differentiation (IBMX (3-isobutyl-1-methylxanthine Sigma; 17018), 0.1 μM dexamethasone (Sigma; D1756) and 0.4 μM of insulin (Sigma; I2643). The cells were also treated with the compounds according to the invention (1 μL of solubilized compound/mL of medium, 200 μL per well).\nAfter 2 days of incubation, the cells were washed with PBS and the differentiation medium was replaced with DMEM 4.5 g/L of glucose supplemented with 10% FCS, 1% L-glutamine, 100 units/mL penicillin and 100 μg/mL streptomycin, 0.4 μM insulin, and the compounds according to the invention for the purpose of completing cellular differentiation and obtaining adipocytes. The medium was changed every 2 days until total differentiation. After culture for 9 days, the treatment was stopped by withdrawing the culture medium, which was stored for assaying secreted adiponectin. The cells were then washed twice with PBS and placed in isopropanol for membrane permeabilization. The content of intracellular triglycerides was evaluated immediately.\nQuantification of intracellular triglycerides was performed with the “Triglyceride Enzymatic PAP1000” kit (bioMérieux; 61238) according to the supplier's recommendations. Secreted adiponectin was measured in the culture medium using the “Mouse Adiponectin/Acrp30 Elisa Kit” kit (R&D Systems; DY1119) according to the supplier's recommendations."}}, "data": [{"smiles": "COc1nc(-c2ccccc2)ccc1CNc1ccc(OCC(=O)O)cc1", "note": "[Cpd 4, 2-(4-(((2-methoxy-6-phenylpyridin-3yl)methyl)amino)phenoxy)ethanoic acid]", "values": [{"measurement": "plasma level of HDL-cholesterol", "setting": "[1]; 10 and 100 mpk oral", "value": "dose-dependent increase"}, {"measurement": "plasma total cholesterol", "setting": "[1]; 10 and 100 mpk oral", "value": "decreased"}, {"measurement": "hepatic expression of gene coding for ACO", "setting": "[2]", "value": "hepatic overexpression"}, {"measurement": "hepatic expression of gene coding for ApoCIII", "setting": "[2]", "value": "significant inhibition"}, {"measurement": "hepatic expression of gene coding for PDK-4", "setting": "[2]", "value": "hepatic overexpression"}]}, {"smiles": "COc1nc(-c2ccccc2)ccc1CNc1ccc(CCC(=O)O)cc1", "note": "[Cpd 19, 3-(4-(((2-methoxy-6-phenylpyridin-3-yl)methyl)amino)phenyl)propanoic acid]", "values": [{"measurement": "plasma level of free fatty acids", "setting": "[1]; 100 mpk oral", "value": "decrease"}, {"measurement": "plasma total cholesterol", "setting": "[1]; 100 mpk oral", "value": "decreased"}, {"measurement": "accumulation of triglycerides in adipocytes", "setting": "[3]", "value": "dose-dependent stimulation"}, {"measurement": "secretion of adiponectin", "setting": "[3]", "value": "dose-dependent stimulation"}]}, {"smiles": "COc1nc(-c2ccccc2)ccc1COc1ccc(OCC(=O)O)cc1", "note": "[Cpd 2, 2-(4-((2-methoxy-6-phenylpyridin-3-yl)methoxy)phenoxy)ethanoic acid]", "values": [{"measurement": "plasma level of HDL-cholesterol", "setting": "[1]; 10 and 100 mpk oral", "value": "dose-dependent increase"}, {"measurement": "plasma total cholesterol", "setting": "[1]; 10 and 100 mpk oral", "value": "decreased"}, {"measurement": "hepatic expression of gene coding for ACO", "setting": "[2]", "value": "hepatic overexpression"}, {"measurement": "hepatic expression of gene coding for ApoCIII", "setting": "[2]", "value": "significant inhibition"}, {"measurement": "hepatic expression of gene coding for PDK-4", "setting": "[2]", "value": "hepatic overexpression"}]}, {"smiles": "COc1nc(-c2ccc(C(F)(F)F)cc2)ccc1COc1ccc(OCC(=O)O)cc1", "note": "[Cpd 24, 2-(4-((2-methoxy-6-(4-(trifluoromethyl)phenyl)pyridin-3-yl)methoxy)-phenoxy)ethanoic acid]", "values": [{"measurement": "accumulation of triglycerides in adipocytes", "setting": "[3]", "value": "dose-dependent stimulation"}, {"measurement": "secretion of adiponectin", "setting": "[3]", "value": "dose-dependent stimulation"}]}]}
